The record followed here is BindingDB's records for doi:10.1021/jm00078a018 (Merck Research Laboratories, 1994).

Structures are written as SMILES. pIC50: −log10 of the molar value.

A short description of the assay: Inhibition of binding of [125I]-CCK-8 to the cholecystokinin type B receptor.
For orientation: pIC50 means the negative decadic logarithm of the IC50, by convention in mol/L. Higher therefore signals a low IC50. Regarding `CCN(CC)C(=O)CN1C(=O)C(NC(=O)Nc2cccc(OC)c2)N=C(c2ccccc2)c2ccccc21` (stereo unspecified) [N,N-Diethyl-2-{3-[3-(3-methoxy-phenyl)-ureido]-2-oxo-5-phenyl-2,3-dihydro-benzo[e][1,4]diazepin-1-yl}-acetamide], the pIC50 was 9.66.
The value for `O=C(CN1C(=O)C(NC(=O)Nc2ccc(Cl)cc2)N=C(c2ccccc2)c2ccccc21)NCc1ccccc1` (stereo unspecified) [N-Benzyl-2-{3-[3-(4-chloro-phenyl)-ureido]-2-oxo-5-phenyl-2,3-dihydro-benzo[e][1,4]diazepin-1-yl}-acetamide] was 6.99; that for `Cc1cccc(NC(=O)NC2N=C(c3ccccc3)c3ccccc3N(CCOC(=O)CCC(=O)O)C2=O)c1` (stereo unspecified) [Succinic acid mono-{2-[2-oxo-5-phenyl-3-(3-m-tolyl-ureido)-2,3-dihydro-benzo[e][1,4]diazepin-1-yl]-ethyl} ester] was 8.14; that for `Cc1cccc(NC(=O)NC2N=C(c3ccccc3)c3ccccc3N(CC(=O)O)C2=O)c1` (stereo unspecified) [[2-Oxo-5-phenyl-3-(3-m-tolyl-ureido)-2,3-dihydro-benzo[e][1,4]diazepin-1-yl]-acetic acid] was 6.42.
The molecule `CCOC(=O)CN1C(=O)C(NC(=O)c2ccccc2Cl)N=C(c2ccccc2F)c2ccccc21` (stereo unspecified) [[3-(2-Chloro-benzoylamino)-5-(2-fluoro-phenyl)-2-oxo-2,3-dihydro-benzo[e][1,4]diazepin-1-yl]-acetic acid ethyl ester] gave a negative logarithm of the IC50 (pIC50) of 5.49.
The value for `CCOC(=O)CN1C(=O)C(NC(=O)N[C@@H](C)c2ccccc2)N=C(c2ccccc2)c2ccccc21` (stereo partly specified) [{2-Oxo-5-phenyl-3-[3-(1-phenyl-ethyl)-ureido]-2,3-dihydro-benzo[e][1,4]diazepin-1-yl}-acetic acid ethyl ester] was less than 7.00; that for `CN1C(=O)C(NC(=O)Nc2cccc(CNC(=O)OC(C)(C)C)c2)N=C(c2ccccc2)c2ccccc21` (stereo unspecified) [{3-[3-(1-Methyl-2-oxo-5-phenyl-2,3-dihydro-1H-benzo[e][1,4]diazepin-3-yl)-ureido]-benzyl}-carbamic acid tert-butyl ester] was 6.77.
The value for `COC(=O)Cc1cccc(NC(=O)NC2N=C(c3ccccc3)c3ccccc3N(C)C2=O)c1` (stereo unspecified) [{3-[3-(1-Methyl-2-oxo-5-phenyl-2,3-dihydro-1H-benzo[e][1,4]diazepin-3-yl)-ureido]-phenyl}-acetic acid methyl ester] was 7.48; that for `CN1C(=O)C(NC(=O)Nc2cccc(CC(=O)O)c2)N=C(c2ccccc2)c2ccccc21` (stereo unspecified) [{3-[3-(1-Methyl-2-oxo-5-phenyl-2,3-dihydro-1H-benzo[e][1,4]diazepin-3-yl)-ureido]-phenyl}-acetic acid] was 8.31; that for `O=C(Nc1ccc(Cl)cc1)NC1N=C(c2ccccc2)c2ccccc2N(CC(=O)OCc2ccccc2)C1=O` (stereo unspecified) [{3-[3-(4-Chloro-phenyl)-ureido]-2-oxo-5-phenyl-2,3-dihydro-benzo[e][1,4]diazepin-1-yl}-acetic acid benzyl ester] was 7.36.
In turn, `O=C(O)CN1C(=O)C(NC(=O)Nc2ccc(Cl)cc2)N=C(c2ccccc2)c2ccccc21` (stereo unspecified) [{3-[3-(4-Chloro-phenyl)-ureido]-2-oxo-5-phenyl-2,3-dihydro-benzo[e][1,4]diazepin-1-yl}-acetic acid] showed a pIC50 of 7.14.
